Data reported in patent publication US5087624A, “Chromic picolinate treatment” (Nutrition 21, priority 1990, dated 1992).
Where “and” joins values, the source holds several entries; their conditions need not be identical. Equal entries are not always repeated. Entries after “also recorded” stand apart in the source; their conditions may differ.

Columns and labels:
[1] = supplemental trivalent chromium; cited from earlier work
[2] = Absorption of orally given Cr-51 labelled chromium: radioactivity in liver and kidney; format: in vivo, male Sprague-Dawley rats; settings: relative to chromic chloride, from Table 1
Source text: The solution was cooled to room temperature before use.

[3] = system: rats; assay: Oral toxicity experiment; format: in vivo, rat
Protocol: In a toxicity experiment, rats weighing a mean of 223.4 g were given an oral suspension of 100 mg, 300 mg and 500 mg chromic tripicolinate in water. […] The tests were stopped at 500 mg because it was impossible to obtain a workable suspension beyond this level.

[4] = Double-blind cross-over study of serum lipids (EXAMPLE 3); format: in vivo, human
Protocol: The placebo contained only 5 mg calcium phosphate. […] Compliance by subjects was monitored by capsule count. The foregoing study protocol is illustrated in FIG. 1.
Student's t test and p values were determined with the program WORMSTAT^TM (available from Small Business Computers, New England, U.S.A.).

[5] = Cross-over study in subjects with adult onset diabetes mellitus (EXAMPLE 4); format: in vivo, human
Source text: Normal values are 5.5% to 7.5%.

[6] = Anabolic effect in male weight-training students (EXAMPLE 5); format: in vivo, human
Protocol: This study was performed to evaluate the anabolic effect of chromic tripicolinate in male subjects.
At the start of the study, 10 male university students enrolled in weight training classes, were given, at random, a 40-day supply of capsules that contained either placebo (5 mg of calcium phosphate) or chromic tripicolinate (1.6 mg chromic tripicolinate admixed with 5 mg of […], which provided 200 ug of chromium). The identity of the capsules was known only to an individual who was not in any way involved in the study. During the 40-day period, each of the volunteers followed a prescribed weight lifting protocol for a total of 3 hours per week. Measurements taken at the beginning and again at the end of the study included various skin-fold thicknesses, bicep and calf circumferences, and body weight. Percent body fat was derived from the sum of the triceps, subscapular and chest skinfolds. Lean body mass was derived from anthropometrically-determined percent body fat: weight -(weight ×percent body fat).

[7] = system: insulin; assay: Binding to insulin
[8] = system: insulin receptors; assay: Binding to insulin receptors
[9] = system: Glucose Tolerance Factor activity; assay: Glucose Tolerance Factor activity
[10] = start of 42-day treatment (baseline), mean ± SD of 28 subjects

Compound: [Cl][Cr]([Cl])[Cl] [chromic chloride]
- risk factors associated with maturity-onset diabetes and cardiovascular diseases [1]: associated with improvements of risk factors

Compound: chromic tripicolinate
- rate of absorption greater than that of chromic chloride [2]: about 4 times
- dose to be ingested before any effects would be observed ([3]; 70 Kg human, extrapolated from rat): > 156 grams
- deaths ([3]; oral suspension 100 mg, 300 mg and 500 mg in water): No deaths occurred
- oral lethal dose ([3]; rats, oral): > 2200 mg/kg
- Apolipoprotein B reduction ([4]; 28 subjects, 42 days): 16%
- LDL-cholesterol decrease ([4]; 28 subjects, 42 days): 10%
- Total cholesterol decrease ([4]; 28 subjects, 42 days): 7%
- LDL-cholesterol change ([4]; 28 subjects, 42 days, p<0.001): significant (p<0.001) reductions
- Total cholesterol change ([4]; 28 subjects, 42 days, p<0.001): significant (p<0.001) reductions
- Apolipoprotein B change ([4]; 28 subjects, p=0.001): decreased significantly
- Apolipoprotein A1 change ([4]; 28 subjects, p=0.003): significantly elevated
- fine rash about forearms ([4]; 200 micrograms Cr daily): one subject on chromium supplementation
- mouth ulcers ([4]; 200 micrograms Cr daily): the other on chromium supplement
- blood pressure change ([4]; 42 days): No significant changes
- heart rate change ([4]; 42 days): No significant changes
- serum triglycerides change ([4]; 42 days): No significant changes
- temperature change ([4]; 42 days): No significant changes
- weight change ([4]; 42 days): No significant changes
- Apo B, Chng. ([4]; 42 days, 28 subjects, p = .001): -25 mg/dL
- Apo A, Chng. ([4]; 42 days, 28 subjects, p = .003): +16 mg/dl
- Apo B, Final ([4]; end of 42-day treatment, mean ± SD of 28 subjects): 130 mg/dL
- LDL-cholesterol change ([4]; final 42 days, placebo-first group, p=0.003): decreased significantly
- Total cholesterol change ([4]; final 42 days, placebo-first group, p=0.009): decreased significantly
- Apolipoprotein B change ([4]; first 6-week period, chromic tripicolinate-first group, p=0.003): significantly decreased
- Total cholesterol change ([4]; first 6-week period, chromic tripicolinate-first group, p=0.007): significantly decreased
- LDL-cholesterol change ([4]; first 6-week period, chromic tripicolinate-first group, p=0.015): significantly decreased
- Apolipoprotein A1 change ([4]; first 6-week period, chromic tripicolinate-first group, p=0.047): significantly elevated
- other abnormalities ([4]; in vivo): No other abnormalities were noted
- subjects with decreased LDL-cholesterol ([4]; of final 28 subjects): 20
- subjects with lower total cholesterol ([4]; of final 28 subjects): 22
- subjects with total cholesterol elevated less than 0.1 mmole/1 (5 mg/dl) ([4]; of final 28 subjects): 4
- subjects with unchanged LDL-cholesterol ([4]; of final 28 subjects): 3
- subjects with unchanged total cholesterol ([4]; of final 28 subjects): 2
- HDL-cholesterol change ([4]; p>0.05): increased slightly but not significantly
- Apolipoprotein B change ([4]; placebo-first group, after supplementation, p=0.072): decreased, but not significantly
- Apolipoprotein A1 change ([4]; placebo-first group, supplementation period, p=0.007): increased significantly
- Apo A, Init [4, 10]: 147 ± 28 mg/dL
- Apo B, Init [4, 10]: 155 ± 50 mg/dL and 155 mg/dL
- Apolipoprotein A1 change, summary ([4]; summary): elevated; also recorded: significant elevation
- Apolipoprotein B change, summary ([4]; summary): decreased; also recorded: significant reduction
- LDL-cholesterol change, summary ([4]; summary of Examples 3 and 4): decreased
- Total cholesterol change, summary ([4]; summary of Examples 3 and 4): decreased
- HDL trend ([5]; P was not <0.05): trends were favorable
- cholesterol trend ([5]; P was not <0.05): trends were favorable
- LDL decrease ([5]; diabetic subjects): 8%
- blood pressure change ([5]; diabetic subjects): no significant changes
- fasting glucose change ([5]; diabetic subjects): significant decreases
- glycosylated hemoglobin change ([5]; diabetic subjects): significant decreases
- heart rate change ([5]; diabetic subjects): no significant changes
- temperature change ([5]; diabetic subjects): no significant changes
- weight change ([5]; diabetic subjects): no significant changes
- Hemoglobin A1 C decrease ([5]; treatment versus placebo groups): 12%
- bicep circumference increase ([6]; 40 days, P=0.0056): 1.4±0.45 cm
- calculated lean body mass increase ([6]; 40 days, P=0.017): 1.6 kg
- increase in lean body mass compared with placebo group ([6]; Student's t test, P=0.0198): significantly greater
- binding to insulin [7]: binds to insulin
- binding to insulin receptors [8]: binds to insulin and insulin receptors
- Glucose Tolerance Factor activity [9]: has Glucose Tolerance Factor activity
